Results on one molecule are retold here after US12285394B2, “Ketogenic compounds, compositions, methods and use thereof” (9500-0535 QUEBEC INC., priority 2018, dated 2025).

Usually pKa stands for the negative logarithm of the acid dissociation constant. Lower therefore signals a group that gives up its proton readily.

This data set is described as follows: pH of the compounds. In kind it is physicochemical.

Each structure is given as a SMILES string.

Molecule `CC(O)CC(=O)O` (stereo not drawn) [BHB, β-hydroxybutyric acid] yielded a pKa of about 4.4.
